The values that follow come from ChEMBL document CHEMBL5036314, “Structure-Guided Design of the First Noncovalent Small-Molecule Inhibitor of CRM1” (J Med Chem, 2021).

Test [1] concerns SW48. Kind of test: Anti-cancer activity against human SW48 cells assessed as cell survival at 10 uM for 72 hrs replaced with compound containing fresh culture medium every 12 hrs by Sulforhodamine B assay. Type of test: functional, cell-based. On the technique in general: In SRB staining, fixed cells bind dye roughly in proportion to their protein.
Test [2] relates to HCT-116. Kind of test: Anti-cancer activity against human HCT-116 cells assessed as cell survival at 10 uM for 72 hrs replaced with compound containing fresh culture medium every 12 hrs by Sulforhodamine B assay. Type of test: functional, cell-based.
Test [3] deals with A2780. Kind of test: Induction of apoptosis in human A2780 cells assessed as necrotic cells at 1 uM replaced with compound containing fresh culture medium every 12 hrs measured for 72 hrs by Annexin V FITC/propidium iodide staining based flow cytometric analysis (reference value: 1%). It counts as functional.
The test system of test [4] is A2780. Kind of test: Anti-cancer activity against human A2780 cells assessed as fold increase Annexin V positive cells at 10 uM incubated for 2 hrs by EdU incorporation based assay. It counts as functional.
The test system of test [5] is A2780. In words: Induction of apoptosis in human A2780 cells assessed as viable cells at 10 uM replaced with compound containing fresh culture medium every 12 hrs measured for 72 hrs by Annexin V FITC/propidium iodide staining based flow cytometric analysis (reference value: 93.97%). The note with it: read-out: Activity. It counts as functional.
Test [6] can be described thus: (§1) Inhibition of cellular nuclear export in human HeLa cells transfected with pmCherry-C1 Cargo plasmid assessed as cytoplasmic cargo level incubated for 12 hrs by confocal microscopic analysis. Type of test: functional, cell-based.
In test [7] the test system is HeLa. The test is described as §1. Type of test: functional, cell-based. The conditions noted are these: dose 1-10 µM.
Test [8] relates to A2780. Kind of test: Induction of apoptosis in human A2780 cells assessed as late apoptotic cells at 10 uM replaced with compound containing fresh culture medium every 12 hrs measured for 72 hrs by Annexin V FITC/propidium iodide staining based flow cytometric analysis (reference value: 1.35%). It counts as functional. In general terms: A flow cytometer gives signals particle by particle.

Test [9] has as its target Exportin-1 (Homo sapiens, UniProt O14980). In words: Binding affinity to wild type human CRM1 transfected HeLa cells assessed as inhibition of nuclear export of cargoes at 10 uM incubated for 12 hrs by confocal microscope analysis. Type of test: cell-based.
Test [10] deals with A2780. Kind of test: Induction of apoptosis in human A2780 cells assessed as necrotic cells at 10 uM replaced with compound containing fresh culture medium every 12 hrs measured for 72 hrs by Annexin V FITC/propidium iodide staining based flow cytometric analysis (reference value: 1%). Type of test: functional.
Test [11] has as its system A549. Kind of test: Anti-cancer activity against human A549 cells assessed as inhibition of cell viability measured for 72 hrs replaced with compound containing fresh culture medium every 12 hrs by Sulforhodamine B assay. Type of test: functional, cell-based.
Test [12] deals with A2780. Kind of test: Induction of apoptosis in human A2780 cells assessed as viable cells at 1 uM replaced with compound containing fresh culture medium every 12 hrs measured for 72 hrs by Annexin V FITC/propidium iodide staining based flow cytometric analysis (reference value: 93.97%). Type of test: functional. The conditions noted are these: read-out: Activity.
The subject of test [13] is A2780. In words: Induction of apoptosis in human A2780 cells assessed as late apoptotic cells at 1 uM replaced with compound containing fresh culture medium every 12 hrs measured for 72 hrs by Annexin V FITC/propidium iodide staining based flow cytometric analysis (reference value: 1.35%). It counts as functional.
The subject of test [14] is Saccharomyces cerevisiae. In words: Inhibition of NES binding to yeast CRM1-T539 mutant in absence of RanGTP at 20 uM by pull down assay.

Structures are written as SMILES. The source made the active and inactive calls. The calls are words filed in the database; no cut-off is given here.

Chain of Exportin-1 (O14980 whole entry): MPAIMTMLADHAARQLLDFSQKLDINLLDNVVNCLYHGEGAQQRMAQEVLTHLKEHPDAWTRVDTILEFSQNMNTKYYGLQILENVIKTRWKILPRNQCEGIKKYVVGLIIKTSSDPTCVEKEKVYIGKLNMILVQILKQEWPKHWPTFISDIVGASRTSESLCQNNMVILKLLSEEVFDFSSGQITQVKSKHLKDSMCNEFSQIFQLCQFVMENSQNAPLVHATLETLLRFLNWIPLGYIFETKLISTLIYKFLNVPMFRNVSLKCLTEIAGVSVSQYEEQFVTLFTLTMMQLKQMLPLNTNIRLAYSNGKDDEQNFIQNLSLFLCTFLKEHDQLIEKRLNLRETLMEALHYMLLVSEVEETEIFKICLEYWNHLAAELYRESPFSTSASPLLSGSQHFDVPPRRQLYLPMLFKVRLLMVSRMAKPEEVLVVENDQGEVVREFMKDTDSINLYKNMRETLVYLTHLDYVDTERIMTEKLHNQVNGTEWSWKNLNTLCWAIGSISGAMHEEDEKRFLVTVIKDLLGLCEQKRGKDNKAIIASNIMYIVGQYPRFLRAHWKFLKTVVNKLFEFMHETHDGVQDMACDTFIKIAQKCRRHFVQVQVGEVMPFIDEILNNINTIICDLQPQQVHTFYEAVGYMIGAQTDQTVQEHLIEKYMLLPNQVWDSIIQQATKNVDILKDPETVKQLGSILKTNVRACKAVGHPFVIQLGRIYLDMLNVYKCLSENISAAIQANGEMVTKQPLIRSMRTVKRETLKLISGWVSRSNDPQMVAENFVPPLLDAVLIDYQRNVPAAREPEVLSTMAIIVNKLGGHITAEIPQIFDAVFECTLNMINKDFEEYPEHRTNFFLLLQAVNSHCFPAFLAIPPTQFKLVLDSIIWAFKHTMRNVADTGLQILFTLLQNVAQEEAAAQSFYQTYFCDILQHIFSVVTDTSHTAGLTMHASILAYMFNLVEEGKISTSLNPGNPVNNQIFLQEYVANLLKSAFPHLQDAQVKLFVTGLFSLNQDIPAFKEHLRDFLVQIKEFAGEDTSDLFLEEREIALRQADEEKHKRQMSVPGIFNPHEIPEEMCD

As to `CC(C)CCNC/C=C/[S+]([O-])c1cc(C(F)(F)F)cc(C(F)(F)F)c1` (centres undefined), the result in test [1] and in test [2] was Active. The Activity in [3] turned out to be 1.1%; in test [8] it was 7.14%; in test [10], 4.19%; in [13], 1.33%. For the same compound, the “fold change (FC)” value in test [4] turned out to be 2. In addition, the viability at 10 µM in test [5] is 64.4%. In addition, in test [6], the EC50 (usually the concentration needed to bring the measured effect to its halfway point) is 3.2 µM. Further, the inhibition entry in [7] is “Dose-Dependent Effect”. Also, the inhibition result in test [9] and in test [14] was “Active” in each case. For the same compound, the IC50 (in general, the concentration that gives 50% inhibition) in [11] was 6.8 µM. In test [12], the viability at 1 µM came to 92.8%.
